Results reported in PMC3582657 (Clinical pharmacology and therapeutics, 2008).
Where “and” joins values, the source holds several entries; their conditions need not be identical. Equal entries are not always repeated. Where two headings read alike, the source gives them in different places.

Assays:
[1] = type: in vivo, human
[2] = background statement, no reference given; cited from earlier work
[3] = mean±SD; for CL renal: human, urine, CLr (renal clearance)
[4] = Safety assessment in the clinical study; type: in vivo, human
[5] = system: P-glycoprotein (P-gp); conditions: cited from earlier work
[6] = system: blood glucose; assay: Blood glucose level after glyburide dosing; type: in vivo, human; conditions: rifampin IV (Treatment C) phase in comparison to other treatment groups; repeated ANOVA p<0.0001
[7] = multiple doses of rifampin; cited from earlier work
[8] = system: blood glucose; conditions: concomitant rifampin versus control; cited from earlier work
[9] = Treatment A: 1.25 mg oral glyburide alone (control), mean±SD, n=9
[10] = Treatment A: 1.25 mg oral glyburide alone (control), median and range
[11] = Treatment A: 1.25 mg oral glyburide alone (control), plasma, mean±SD, n=9
[12] = Treatment B (ciprofloxacin IV phase) vs Treatment A
[13] = Treatment B: 200 mg iv ciprofloxacin just before 1.25 mg oral glyburide, median and range
[14] = Treatment C (rifampin IV phase) vs Treatment A
[15] = Treatment C: single 600 mg iv rifampin then 1.25 mg oral glyburide, mean±SD, n=9
[16] = Treatment D (rifampin IV after oral induction) compared with Treatment E
[17] = Treatment D (rifampin IV after oral induction) compared with control Treatment A
[18] = Treatment D (rifampin IV/PO phase) vs Treatment A
[19] = Treatment D: 600 mg oral rifampin daily for 6 days, next day 600 mg iv rifampin then 1.25 mg oral glyburide, median and range
[20] = Treatment E (rifampin PO phase) vs Treatment A
[21] = iv rifampin effect under induced conditions (Treatment D / Treatment E)
[22] = iv rifampin effect under noninduced conditions (Treatment C / Treatment A)
[23] = single IV infusion of rifampin (Treatment C) compared with control Treatment A
[24] = single IV infusion of rifampin (Treatment C) vs control Treatment A

COc1ccc(Cl)cc1C(=O)NCCc1ccc(S(=O)(=O)NC(=O)NC2CCC(O)CC2)cc1 (stereo not drawn) [4-hydroxyglyburide, 4-trans-hydroxyglyburide]
AUCm/AUCp (AUC ratio of 4-hydroxyglyburide to glyburide) ([1]; Treatment A, glyburide control, mean±SD): 3.67±1.03%
MRT [1, 9]: 1.6 ± 0.9 h
t1/2 [1, 9]: 4.2 ± 1.7 h
Tmax [1, 10]: 4(3–6) h
AUC0-∞ [1, 11]: 66.0 ± 23.2 ng·h/mL
Cmax [1, 11]: 9.67 ± 2.51 ng/mL
AUC0-∞, mean % of control [1, 12]: 101 % of control
Cmax, mean % of control [1, 12]: 99 % of control
MRT, mean % of control [1, 12]: 89 % of control
t1/2, mean % of control [1, 12]: 115 % of control
AUCm/AUCp (AUC ratio of 4-hydroxyglyburide to glyburide) ([1]; Treatment B, ciprofloxacin IV, mean±SD): 3.34±0.37%
Tmax [1, 13]: 4(3–8) h
AUC0-∞, mean % of control [1, 14]: 145 % of control
Cmax, mean % of control [1, 14]: 134 % of control
MRT, mean % of control [1, 14]: 121 % of control
t1/2, mean % of control [1, 14]: 102 % of control
AUCm/AUCp (AUC ratio of 4-hydroxyglyburide to glyburide) ([1]; Treatment C, rifampin IV, mean±SD): 2.36±0.61 %
MRT [1, 15]: 1.5 ± 0.8 h
t1/2 [1, 15]: 3.8 ± 0.7 h
Tmax ([1]; Treatment C: single 600 mg iv rifampin then 1.25 mg oral glyburide, median and range): 4(3–6) h
increase in AUC [1, 16]: 67±44%
increase in Cmax [1, 16]: 49±44%
decrease in Cmax [1, 17]: not significant
AUC0-∞, mean % of control [1, 18]: 54 % of control
Cmax, mean % of control [1, 18]: 81 % of control
MRT, mean % of control [1, 18]: 77 % of control
decrease in mean residence time (MRT) ([1]; Treatment D versus control Treatment A): 23%
AUCm/AUCp (AUC ratio of 4-hydroxyglyburide to glyburide) ([1]; Treatment D, rifampin IV/PO, mean±SD): 2.52±0.35 %
Tmax [1, 19]: 4(3–6) h
AUC0-∞, mean % of control [1, 20]: 33 % of control
Cmax, mean % of control [1, 20]: 56 % of control
MRT, mean % of control [1, 20]: 41 % of control
AUCm/AUCp (AUC ratio of 4-hydroxyglyburide to glyburide) ([1]; Treatment E, rifampin PO, mean±SD): 3.36±0.60%
AUC0-∞, ratio D to E [1, 21]: 1.7±0.4
Cmax, ratio D to E [1, 21]: 1.5±0.4
MRT, ratio D to E [1, 21]: 1.3±1.3
AUC0-∞, ratio C to A [1, 22]: 1.5±0.4
Cmax, ratio C to A [1, 22]: 1.3±0.5
MRT, ratio C to A [1, 22]: 1.2±0.9
increase in AUC0-∞ [1, 23]: 45 ± 37%
increase in Cmax [1, 23]: 34 ± 47%
hypoglycemic activity (potency) retained relative to the parent compound [2]: 75%
0–12h accumulated urine excretion ([3]; Treatment A, glyburide control): 358 ± 107 µg
CLr (renal clearance) ([3]; Treatment A, glyburide control): 2200 ± 619 mL/day/kg
0–12h accumulated urine excretion ([3]; Treatment B, ciprofloxacin IV): 325 ± 77 µg
CLr (renal clearance) ([3]; Treatment B, ciprofloxacin IV): 2220 ± 564 mL/day/kg
0–12h accumulated urine excretion ([3]; Treatment C, rifampin IV): 457 ± 72 µg
CLr (renal clearance) ([3]; Treatment C, rifampin IV): 2120 ± 629 mL/day/kg
0–12h accumulated urine excretion ([3]; Treatment D, rifampin IV/PO): 208±56 ^** ug
CLr (renal clearance) ([3]; Treatment D, rifampin IV/PO): 2100 ± 401 mL/day/kg
0–12h accumulated urine excretion ([3]; Treatment E, rifampin PO): 135 ± 40 µg
CLr (renal clearance) ([3]; Treatment E, rifampin PO): 2200 ± 665 mL/day/kg

COc1ccc(Cl)cc1C(=O)NCCc1ccc(S(=O)(=O)NC(=O)N[C@@H]2CCC[C@H](O)C2)cc1 (relative stereo) [3-cis-hydroxyglyburide]
hypoglycemic activity (potency) retained relative to the parent compound [2]: 50%

CO[C@H]1/C=C/O[C@@]2(C)Oc3c(C)c(O)c4c(O)c(c(/C=N/N5CCN(C)CC5)c(O)c4c3C2=O)NC(=O)/C(C)=C\C=C\[C@H](C)[C@H](O)[C@@H](C)[C@@H](O)[C@@H](C)[C@H](OC(C)=O)[C@@H]1C [rifampin]
adverse event leading to withdrawal ([4]; one subject, after visit 3): allergy to rifampin
inhibition of Pgp [5]: does not inhibit Pgp

COc1ccc(Cl)cc1C(=O)NCCc1ccc(S(=O)(=O)NC(=O)NC2CCCCC2)cc1 [glyburide]
CL/F [1, 9]: 10.1±3.1 mI/h/kg
Vss/F [1, 9]: 49±33 mI/kg
Tmax [1, 10]: 3(2–4) h
AUC0-∞, mean % of control [1, 12]: 107 % of control
Cmax, mean % of control [1, 12]: 95 % of control
MRT, mean % of control [1, 12]: 119 % of control
t1/2, mean % of control [1, 12]: 108 % of control
Tmax [1, 13]: 3(2–6) h
AUC0-∞, mean % of control [1, 14]: 225 % of control
Cmax, mean % of control [1, 14]: 181 % of control
MRT, mean % of control [1, 14]: 84 % of control
t1/2, mean % of control [1, 14]: 84 % of control
CL/F [1, 15]: 4.59±1.20 mI/h/kg
Vss/F [1, 15]: 16±7 mI/kg
increase in AUC [1, 16]: 120±56%
increase in Cmax [1, 16]: 92±76%
decrease in AUC0-∞ [1, 17]: 22±21% and 22%
decrease in Cmax [1, 17]: 9±0.3% and 8%
AUC0-∞, mean % of control [1, 18]: 78 % of control
Cmax, mean % of control [1, 18]: 91 % of control
MRT, mean % of control [1, 18]: 61 % of control
Tmax [1, 19]: 3(2–4) h
AUC0-∞, mean % of control [1, 20]: 37 % of control
Cmax, mean % of control [1, 20]: 52 % of control
MRT, mean % of control [1, 20]: 53 % of control
change in any pharmacokinetic parameter ([1]; ciprofloxacin co-administered with glyburide (Treatment B) vs Treatment A): No significant changes in any parameter
Tmax ([1]; human, plasma, oral): 3 h
Tmax ([1]; human, plasma, po, 1.25 mg): 3 h
AUC(0-inf) ([1]; human, plasma, po, 1.25 mg, AUC0-∞, Treatment A: 1.25 mg oral glyburide alone (control), plasma, mean±SD, n=9): 1890 ± 682 ng·h/mL
Cmax ([1]; human, plasma, po, 1.25 mg, Cmax, Treatment A: 1.25 mg oral glyburide alone (control), plasma, mean±SD, n=9): 384 ± 135 ng/mL
MRT ([1]; human, plasma, po, 1.25 mg, MRT, Treatment A: 1.25 mg oral glyburide alone (control), mean±SD, n=9): 4.5 ± 2 h
half-life ([1]; human, plasma, po, 1.25 mg, t1/2, Treatment A: 1.25 mg oral glyburide alone (control), mean±SD, n=9): 4.7 ± 1.3 h
increase in AUC0-∞ [1, 23]: 125± 51.5% and 125%
increase in Cmax [1, 23]: 81 ± 28% and 81%
change in apparent terminal half-life (t1/2) ([1]; single IV infusion of rifampin (Treatment C) vs control): did not change
decrease in oral clearance (CL/F) [1, 24]: 53 ± 13%
decrease in oral steady-state volume of distribution (Vss/F) [1, 24]: 60 ± 29%
decremental AUC0–12 of blood glucose [6]: statistically significant decrease
serious adverse events ([4]; during or after the study, all treatments): No serious adverse events
decrease in AUC of glyburide by rifampin [7]: 39%
decrease in maximal concentration (Cmax) of glyburide by rifampin [7]: 22%
change in blood glucose decremental AUC(0–7) (net area below baseline) [8]: −44%
change in maximum decrease in the blood glucose concentration [8]: −36%
0–12h accumulated urine excretion ([3]; Treatment A, glyburide control): 1.8 ± 1.1 µg
0–12h accumulated urine excretion ([3]; Treatment B, ciprofloxacin IV): 1.7 ± 0.6 µg
0–12h accumulated urine excretion ([3]; Treatment C, rifampin IV): 3.9 ± 1.3 µg
0–12h accumulated urine excretion ([3]; Treatment D, rifampin IV/PO): 1.4 ± 0.5 µg
0–12h accumulated urine excretion ([3]; Treatment E, rifampin PO): 1.3 ± 0.7 µg
CL renal ([3]; iv, Treatment B, ciprofloxacin IV): 0.36 mL/day/kg
CL renal ([3]; iv, Treatment C, rifampin IV): 0.384 mL/day/kg
CL renal ([3]; oral, 1.25 mg, Treatment A, glyburide control): 0.408 mL/day/kg
CL renal ([3]; oral, Treatment D, rifampin IV/PO): 0.384 mL/day/kg
CL renal ([3]; po, 1.25 mg, Treatment E, rifampin PO): 0.744 mL/day/kg
